# Patent US20070037752A1, “Novel alanyl-amino peptidase inhibitors for functionally influencing different cells and treating immunological, inflammatory, neuronal, and other diseases” (priority 2003, published 2007)
# Where two headings read alike, the source gives them in different places.
# Target: alanyl aminopeptidases (APN) (Homo sapiens, UniProt P15144)
# Assay: Inhibition of alanyl aminopeptidase enzymatic activity, fluorogenic substrate (Ala)2-rhodamine 110
# Format: biochemical
# Procedure: The inhibition characteristics measured are referred to as IC-50 values or ID50 values (the latter marked with “*”) for said enzyme. The enzymatic activity was determined by means of the fluorogenic substrate/product (Ala)2-rhodamine 110.
# [1] = Table 9, starred values = ID50, read-out: ID50 APN (values marked with *)
# [2] = Table 3, unstarred values, read-out: IC50APN
# [3] = Table 9, unstarred values, read-out: IC50APN
# [4] = Table 4, unstarred values, read-out: IC50APN
# [5] = Table 4, starred values = ID50, read-out: ID50 APN (values marked with *)
# [6] = Table 1, unstarred values, read-out: IC50APN
# Chain of alanyl aminopeptidases (APN) (P15144 whole entry, species assumed): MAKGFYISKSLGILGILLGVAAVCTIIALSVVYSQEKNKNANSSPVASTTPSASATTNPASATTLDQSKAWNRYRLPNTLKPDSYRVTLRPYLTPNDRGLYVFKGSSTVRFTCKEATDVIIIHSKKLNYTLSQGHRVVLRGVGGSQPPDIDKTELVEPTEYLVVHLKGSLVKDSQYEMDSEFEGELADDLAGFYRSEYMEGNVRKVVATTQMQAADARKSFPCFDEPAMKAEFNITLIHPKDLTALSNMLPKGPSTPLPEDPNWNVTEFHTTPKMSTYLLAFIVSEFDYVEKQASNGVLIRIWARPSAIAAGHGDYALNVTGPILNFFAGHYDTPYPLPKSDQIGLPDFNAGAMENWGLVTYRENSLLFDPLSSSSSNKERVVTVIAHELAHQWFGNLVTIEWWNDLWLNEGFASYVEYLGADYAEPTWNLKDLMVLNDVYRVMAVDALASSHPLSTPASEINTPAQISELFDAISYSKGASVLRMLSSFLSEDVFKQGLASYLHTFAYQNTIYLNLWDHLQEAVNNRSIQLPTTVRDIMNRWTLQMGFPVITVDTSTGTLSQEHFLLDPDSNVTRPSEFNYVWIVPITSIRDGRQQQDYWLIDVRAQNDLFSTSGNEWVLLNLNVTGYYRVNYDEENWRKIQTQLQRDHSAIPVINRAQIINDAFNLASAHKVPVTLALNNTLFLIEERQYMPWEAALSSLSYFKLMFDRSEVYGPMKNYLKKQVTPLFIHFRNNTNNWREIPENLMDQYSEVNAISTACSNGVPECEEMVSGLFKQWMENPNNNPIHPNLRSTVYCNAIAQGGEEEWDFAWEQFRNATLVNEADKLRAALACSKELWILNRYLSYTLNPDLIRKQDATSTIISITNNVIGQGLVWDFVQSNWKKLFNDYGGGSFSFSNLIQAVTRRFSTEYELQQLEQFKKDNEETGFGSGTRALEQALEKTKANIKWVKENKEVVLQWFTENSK
structure (smiles),measurement,setting,value
CC(=O)c1cccc(-c2ccc(/C=C3/C(=O)N(CCCO)C(=O)C(C#N)=C3C)o2)c1 [A13.009],IC50,"Table 13, read-out: IC50APN",18.2 µM
CC(C)Oc1ccc(/C=N/CCC2(c3ccccc3)CCOC(C)(C)C2)cc1 (stereo not drawn) [A9.126],IC50,[1],197 µM
Cc1ccc(/C=N\NC(=O)Cc2cccs2)o1 [A3.265],IC50,[2],51.1 µM
NCCCNC(=O)C1Cc2ncn(Cc3ccccc3[N+](=O)[O-])c2CN1Cc1ccccn1 (stereo not drawn) [A9.123],IC50,[3],138 µM
CC(=O)Oc1ccc([N+](=O)[O-])cc1/C=N/NC(=O)COc1cc(C)ccc1C(C)C [A11.014],IC50,"Table 11, read-out: IC50APN",20.3 µM
Cc1cccc(C)c1Nc1c(-c2ccccc2NC(=O)Nc2cccc(Cl)c2)nc2c(C(=O)NCC(C)C)cccn12 [A3.121],IC50,[2],21.6 µM
Cc1ccc(/C=N/NC(=O)c2nnn(-c3nonc3N)c2C)o1 [A2.003],IC50,"Table 2, read-out: IC50APN",10.9 µM
O=C(N/N=C/c1ccco1)c1ccc(F)cc1 [A3.296],IC50,[2],68.9 µM
Cc1ccc(/C=N/NC(=O)c2cn(-c3nonc3N)nn2)o1 [A4.008],IC50,[4],6.9 µM
Cc1ccc(/C=N/NC(=O)c2ccccc2OCc2ccccc2)o1 [A3.090],IC50,[2],18.4 µM
CCN(CC)c1ccc(/C=C(\NC(=O)c2ccccc2)C(=O)N/N=C/c2ccc(O)c([N+](=O)[O-])c2)cc1 [A11.002],IC50,"Table 11, read-out: IC50APN",7.6 µM
CC1=C(C#N)C(O)=NC(=O)/C1=C/c1ccc(-c2ccc(Cl)c(C(=O)OC(C)C)c2)o1 [A9.053],IC50,[3],21.3 µM
COc1ccccc1C(=O)N/N=C/c1ccco1 [A4.131],IC50,[4],44.7 µM
O=C(N/N=C/c1ccco1)c1ccn[nH]1 [A3.232],IC50,[2],40.3 µM
CCCOC(=O)c1cc(-c2ccc(/C=C3\C(=O)NC(=O)C(C#N)=C3C)o2)ccc1Cl [A3.221],IC50,[2],36.8 µM
CCN(CC)c1ccc(/C=N/NC(=O)CNC(=O)/C=C/c2ccco2)cc1 [A3.135],IC50,[2],22.8 µM
O=C(N/C(=C\c1ccco1)C(=O)N1CCCCC1)c1ccco1 [A9.022],IC50,[3],10.6 µM
Cc1ccccc1NC(=O)C1C(c2cccs2)C(C#N)=C(SCC(=O)Nc2ccc(Br)cc2)NC1(C)O (stereo not drawn) [A13.019],IC50,"Table 13, read-out: IC50APN",33.9 µM
Cc1ccc(S(=O)(=O)N2CCC(C(=O)N/N=C/c3ccco3)CC2)cc1 [A4.160],IC50,[4],69.3 µM
COc1ccc(C(OCCC(=O)NO)c2ccccc2)cc1 (stereo not drawn) [A12.053],IC50,"Table 12, read-out: IC50APN",33 µM
CCCN1C(=O)C(C#N)=C(C)/C(=C\c2ccc(-c3cccc(Cl)c3C)o2)C1=O [A9.049],IC50,[3],20.8 µM
CCOC(=O)CCCCC(=O)c1c(C)n(C(=O)c2ccc(N3C(=O)CCC3=O)cc2)c(=O)n1C(=O)c1ccc(N2C(=O)CCC2=O)cc1 [A3.072],IC50,[2],15.6 µM
Cc1ccc(C(=O)N/C(=C\c2ccco2)C(=O)N2CC3CC(C2)c2cccc(=O)n2C3)cc1C (stereo not drawn) [A10.006],IC50,"Table 10, read-out: IC50APN",11.8 µM
CCOc1ccc(CC(=O)NO)cc1 [A12.013],IC50,"Table 12, read-out: IC50APN",7.5 µM
COc1cc(C(=O)NCC(=O)N/N=C\c2ccc(C)o2)cc(OC)c1OC [A4.182],IC50,[5],161 µM
COc1ccc(C(OCCC(=O)NO)c2ccccc2)cc1 (stereo not drawn) [A1.014],IC50,[6],33 µM
Cc1ccc(OCC(=O)N/N=C/c2ccco2)cc1C [A4.117],IC50,[4],36.3 µM
CCc1cccc(CC)c1NC(=S)N/N=C1\C(=O)N(CN2CC(C)CC(C)C2)c2ccccc21 (stereo not drawn) [A4.007],IC50,[4],6.7 µM
O=C1C(Cc2c[nH]c3ccccc23)NC(=S)N1c1ccccc1 (stereo not drawn) [A7.006],IC50,"Table 7, read-out: IC50APN",12.4 µM
C/C(CC1N=NC([N+](=O)[O-])=N1)=N/NC(=O)COc1ccccc1[N+](=O)[O-] (stereo not drawn) [A4.001],IC50,[4],3.4 µM
COc1ccc(/C=N/NC(=O)CNC(=O)c2cccc(F)c2)cc1[N+](=O)[O-] [A4.167],IC50,[5],80.4 µM
CCOC(=O)C(C#N)c1c([N+](=O)[O-])c(=O)n(-c2ccccc2)c2ccccc12 (stereo not drawn) [A9.078],IC50,[3],30 µM
Cn1cccc1CC(=O)N/N=C\c1ccco1 [A4.174],IC50,[5],113 µM
COCc1nnn(-c2nonc2N)c1C(=O)N/N=C/c1ccco1 [A2.004],IC50,"Table 2, read-out: IC50APN",12.5 µM
CCCCCC(=O)N/N=C/c1ccco1 [A3.164],IC50,[2],26.7 µM
COc1ccc(C(=O)N/N=C/c2cc(Br)c(C)o2)cc1 [A3.125],IC50,[2],21.8 µM
C=CCOC(=O)c1cc(-c2ccc(/C=C3/C(=O)N(CCCO)C(=O)C(C#N)=C3C)o2)ccc1Cl [A3.087],IC50,[2],18.1 µM
CC1=C(C#N)C(=O)N(CC(C)O)C(=O)/C1=C/c1ccc(-c2ccc(Br)cc2)o1 (stereo not drawn) [A3.252],IC50,"Table 3, starred values = ID50, read-out: ID50 APN (values marked with *)",47.2 µM
CC1=C(C#N)C(=O)N(CCO)C(=O)/C1=C\c1ccc(-c2cc(Cl)ccc2Cl)o1 [A9.002],IC50,[1],1.2 µM
O=C(CCCCCN1C(=O)c2cccc3cccc(c23)C1=O)NO [A1.009],IC50,[6],14.1 µM
CC1CCN(S(=O)(=O)c2ccc3c(c2)C(Cl)(Cl)C(=O)N3)CC1 [A9.092],IC50,[3],37.2 µM
O=C(N/C(=C\c1ccco1)C(=O)N1CCCCC1)c1ccco1 [A3.040],IC50,[2],10.6 µM
O=C(Nc1ccc(F)cc1)c1ccc([NH+]([O-])O)o1 (stereo not drawn) [A11.027],IC50,"Table 11, read-out: IC50APN",37.4 µM
O=C(CCC(=O)Nc1ccccc1)N/N=C/c1ccco1 [A3.234],IC50,[2],41.1 µM
CCCN1C(=O)C(C#N)=C(C)/C(=C\c2ccc(-c3cccc(Cl)c3C)o2)C1=O [A3.112],IC50,[2],20.8 µM
